According to patent publication US10334852B2, “Pyrido-1,3-oxazine-2,4-dione compounds with fungicidal activity” (Dow AgroSciences LLC, priority 2016, dated 2019):
Like-named read-outs stand apart in the source and are kept apart here.

Tests used:
Zymoseptoria tritici = assay: Leaf blotch of wheat (SEPTTR) disease control on wheat seedlings; format: in vivo, Zymoseptoria tritici on wheat plants (variety Yuma); settings: LV activity at 121.5 g/H
Experimental: (§1) Technical grades of materials were dissolved in acetone, which were then mixed with nine volumes of water (H2O) containing 110 ppm Triton X-100. The fungicide solutions were applied onto wheat seedlings using an automated booth sprayer to run-off. All sprayed plants were allowed to air dry prior to further handling. All fungicides were evaluated using the aforementioned method for their activity vs. all target diseases, unless stated otherwise. Wheat leaf blotch and brown rust activity were also evaluated using track spray applications, in which case the fungicides were formulated as EC formulations, containing 0.1% Trycol 5941 in the spray solutions. Wheat plants (variety Yuma) were grown from seed in a greenhouse in 50% mineral soil/50% soil-less Metro mix until the first leaf was fully emerged, with 7-10 seedlings per pot. These plants were inoculated with an aqueous spore suspension of Zymoseptoria tritici either prior to or after fungicide treatments. […] When disease symptoms were fully expressed on the 1st leaves of untreated plants, infection levels were assessed on a scale of 0 to 100 percent disease severity. Percent disease control was calculated using the ratio of disease severity on treated plants relative to untreated plants.

Puccinia triticina = assay: Wheat brown rust (PUCCRT) disease control on wheat seedlings; format: in vivo, Puccinia triticina on wheat plants (variety Yuma); settings: LV activity at 121.5 g/H
Experimental: as §1, with “plants. […]” for “plants.”

Work on `CCc1cc(OC)ccc1C(c1ccc(OC)cc1OC)[C@H](C)OC(=O)[C@H](C)n1c(=O)oc2c(OC)ccnc2c1=O` (stereo partly shown) [Compound 8] yielded a pest or weed control at 121.5 g/ha (Zymoseptoria tritici; 24 h, 1 Day Protectant, read-out: SEPTTR 1DP disease control rating) of over 80%, a pest or weed control at 121.5 g/ha (Zymoseptoria tritici; 72 h, 3 Day Curative, read-out: SEPTTR 3DC disease control rating) of over 80% and a pest or weed control at 121.5 g/ha (Puccinia triticina; 24 h, 1 Day Protectant, read-out: PUCCRT 1DP disease control rating) of at most 80%. The pest or weed control at 121.5 g/ha (Puccinia triticina; 72 h, 3 Day Curative, read-out: PUCCRT 3DC disease control rating) was at most 80%.
